Values quoted from earlier work in patent US20190321395A1, “TREATMENT OF PSORIASIS, SEBORRHEIC DERMATITIS, AND ECZEMA OF THE HEAD AND NECK” (Oread Therapeutics, priority 2018, published 2019).

SMILES | Water Solubility
CC(=O)N1CCN(c2ccc(OCC3COC(Cn4ccnc4)(c4ccc(Cl)cc4Cl)O3)cc2)CC1 (centres unmarked) [Ketoconazole] | 0.9 µg/mL
[O-][n+]1ccccc1[S-].[O-][n+]1ccccc1[S-].[Zn+2] [Pyrithione Zinc] | 86.00 µg/mL
